Assay results taken from US20250115569A1, “SULFONAMIDE COMPOUNDS FOR THE TREATMENT OF NEUROLOGICAL CONDITIONS” (LARIO THERAPEUTICS LIMITED, priority 2021, published 2025).

Biological target: Cav2.3 (Homo sapiens, UniProt Q15878)
Assay: Human Cav2.3 channel calcium-influx assay
Format: cell-based
Conditions: Fluo8 fluorescence, HEK-293 T-Rex/Kir2.1/Cav2.3e cells, without pluronic acid, read-out: Cav2.3 (pIC50) (converted)
How it was run: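 Signal = peak fluorescence (5–130 s) minus baseline (1–2 s), normalized to neutral (0) and inhibitor (−100) controls as % effect. Depolarization used final 20 mM KCl, 130 mM NaCl, 2 mM CaCl2, after 3 min RT compound exposure (30 μM top, half-log, 8 points, 0.3% DMSO) in doxycycline-induced HEK-293 T-Rex/Kir2.1/Cav2.3e-β4-α2δ1 cells with Fluo8 NW.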

Chain of Cav2.3 (Q15878 whole entry, looked up): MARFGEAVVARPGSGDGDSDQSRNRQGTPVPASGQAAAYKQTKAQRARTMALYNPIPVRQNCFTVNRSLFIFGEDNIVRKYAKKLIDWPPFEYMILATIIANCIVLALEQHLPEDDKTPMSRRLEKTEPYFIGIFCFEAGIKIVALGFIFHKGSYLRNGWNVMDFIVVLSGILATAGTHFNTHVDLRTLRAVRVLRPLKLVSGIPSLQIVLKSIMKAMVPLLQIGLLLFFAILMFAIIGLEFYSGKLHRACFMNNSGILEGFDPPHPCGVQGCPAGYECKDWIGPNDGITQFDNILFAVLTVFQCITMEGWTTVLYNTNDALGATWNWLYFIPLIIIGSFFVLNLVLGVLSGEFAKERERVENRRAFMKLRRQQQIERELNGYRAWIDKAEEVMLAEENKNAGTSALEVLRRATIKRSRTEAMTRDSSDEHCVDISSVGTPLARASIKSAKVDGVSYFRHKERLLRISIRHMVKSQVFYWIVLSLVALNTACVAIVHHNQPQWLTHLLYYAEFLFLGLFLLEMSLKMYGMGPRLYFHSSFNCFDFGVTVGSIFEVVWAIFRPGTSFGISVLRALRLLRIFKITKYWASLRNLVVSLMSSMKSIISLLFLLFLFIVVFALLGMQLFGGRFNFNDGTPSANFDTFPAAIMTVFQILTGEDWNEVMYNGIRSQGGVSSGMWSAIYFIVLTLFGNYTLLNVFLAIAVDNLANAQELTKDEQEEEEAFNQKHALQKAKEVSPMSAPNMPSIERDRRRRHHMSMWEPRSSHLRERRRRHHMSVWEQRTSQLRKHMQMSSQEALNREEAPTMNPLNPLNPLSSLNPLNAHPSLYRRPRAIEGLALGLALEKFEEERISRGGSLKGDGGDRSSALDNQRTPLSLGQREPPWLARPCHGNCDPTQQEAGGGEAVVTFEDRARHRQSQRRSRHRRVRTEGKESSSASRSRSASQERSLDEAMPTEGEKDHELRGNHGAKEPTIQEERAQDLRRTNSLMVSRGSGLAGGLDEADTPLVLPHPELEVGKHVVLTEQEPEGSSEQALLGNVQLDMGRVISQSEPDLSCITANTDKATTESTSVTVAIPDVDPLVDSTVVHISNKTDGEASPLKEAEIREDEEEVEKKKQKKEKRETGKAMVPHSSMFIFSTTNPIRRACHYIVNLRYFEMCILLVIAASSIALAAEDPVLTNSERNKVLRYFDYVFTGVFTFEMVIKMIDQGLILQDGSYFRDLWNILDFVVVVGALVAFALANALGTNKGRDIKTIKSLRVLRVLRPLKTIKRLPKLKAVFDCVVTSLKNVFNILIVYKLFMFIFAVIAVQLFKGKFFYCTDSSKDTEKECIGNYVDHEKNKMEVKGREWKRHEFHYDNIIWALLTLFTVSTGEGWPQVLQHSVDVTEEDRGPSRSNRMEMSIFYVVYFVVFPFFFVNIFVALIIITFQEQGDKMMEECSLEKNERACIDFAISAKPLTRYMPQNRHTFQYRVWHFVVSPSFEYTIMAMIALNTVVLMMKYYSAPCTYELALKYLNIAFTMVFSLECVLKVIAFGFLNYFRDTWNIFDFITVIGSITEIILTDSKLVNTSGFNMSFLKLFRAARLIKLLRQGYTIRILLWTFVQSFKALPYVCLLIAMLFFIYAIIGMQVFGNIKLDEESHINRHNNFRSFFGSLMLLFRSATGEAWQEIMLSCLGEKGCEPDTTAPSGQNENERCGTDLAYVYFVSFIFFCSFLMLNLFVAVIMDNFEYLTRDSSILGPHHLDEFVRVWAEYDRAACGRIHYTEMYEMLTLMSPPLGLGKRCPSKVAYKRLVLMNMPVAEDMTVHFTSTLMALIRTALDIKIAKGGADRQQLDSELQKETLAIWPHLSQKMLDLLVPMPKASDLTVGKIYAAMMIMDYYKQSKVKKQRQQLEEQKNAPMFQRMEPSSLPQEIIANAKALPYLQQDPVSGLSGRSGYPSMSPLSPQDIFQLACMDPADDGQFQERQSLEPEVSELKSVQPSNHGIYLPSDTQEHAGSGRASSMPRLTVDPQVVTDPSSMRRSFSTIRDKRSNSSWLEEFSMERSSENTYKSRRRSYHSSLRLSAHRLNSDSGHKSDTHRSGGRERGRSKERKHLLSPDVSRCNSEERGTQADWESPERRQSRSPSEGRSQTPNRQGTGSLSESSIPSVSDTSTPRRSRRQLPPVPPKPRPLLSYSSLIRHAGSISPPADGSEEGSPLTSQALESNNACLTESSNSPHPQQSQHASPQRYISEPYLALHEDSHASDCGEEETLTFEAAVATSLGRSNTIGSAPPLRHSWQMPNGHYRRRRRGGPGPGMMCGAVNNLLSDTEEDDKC

Row | SMILES | IC50 [µM]
1 | CCN([C@H](c1ccc(F)cc1)C(F)(F)F)S(=O)(=O)c1ccc2nc(C)c(Cl)n2n1 [Example 157, (R)-3-chloro-N-ethyl-2-methyl-N-(2,2,2-trifluoro-1-(4-fluorophenyl)ethyl)imidazo[1,2-b]pyridazine-6-sulfonamide] | 3.02
2 | CCN([C@H](c1ccc(F)cc1)C(F)(F)F)S(=O)(=O)c1ccn2nnnc2c1 [Example 158, (R)—N-ethyl-N-(2,2,2-trifluoro-1-(4-fluorophenyl)ethyl)tetrazolo[1,5-a]pyridine-7-sulfonamide] | 0.275
3 | CCN([C@H](c1ccc(F)cc1)C(F)(F)F)S(=O)(=O)c1ccc2ncn(C)c2c1 [Example 164, (R)—N-ethyl-1-methyl-N-(2,2,2-trifluoro-1-(4-fluorophenyl)ethyl)-1H-benzo[d]imidazole-6-sulfonamide] | 0.174
4 | CCN([C@H](c1ccc(F)cc1)C(F)(F)F)S(=O)(=O)c1cnc2ccnn2c1 [Example 165, (R)—N-ethyl-N-(2,2,2-trifluoro-1-(4-fluorophenyl)ethyl)pyrazolo[1,5-a]pyrimidine-6-sulfonamide] | 0.123
5 | CCN([C@H](c1ccc(F)cc1)C(F)(F)F)S(=O)(=O)c1cnc2[nH]nnc2c1 [Example 166, (R)—N-ethyl-N-(2,2,2-trifluoro-1-(4-fluorophenyl)ethyl)-1H-[1,2,3]triazolo[4,5-b]pyridine-6-sulfonamide] | 0.794
6 | CCN([C@H](c1ccc(F)cc1)C(F)(F)F)S(=O)(=O)c1cc2cn[nH]c2cn1 [Example 167, (R)—N-ethyl-N-(2,2,2-trifluoro-1-(4-fluorophenyl)ethyl)-1H-pyrazolo[3,4-c]pyridine-5-sulfonamide] | 0.331
7 | CCN([C@H](c1ccc(F)cc1)C(F)(F)F)S(=O)(=O)c1ccc2nnc(C)n2n1 [Example 168, (R)—N-ethyl-3-methyl-N-(2,2,2-trifluoro-1-(4-fluorophenyl)ethyl)-[1,2,4]triazolo[4,3-b]pyridazine-6-sulfonamide] | 2.19
8 | CCN([C@H](c1ccc(F)cc1)C(F)(F)F)S(=O)(=O)c1ccc2nnc(C(F)(F)F)n2n1 [Example 169, (R)—N-ethyl-N-(2,2,2-trifluoro-1-(4-fluorophenyl)ethyl)-3-(trifluoromethyl)-[1,2,4]triazolo[4,3-b]pyridazine-6-sulfonamide] | 5.75
9 | CN([C@H](c1ccc(F)cc1)C(F)(F)F)S(=O)(=O)c1ccc2nnc(C(F)(F)F)n2n1 [Example 170, (R)—N-methyl-N-(2,2,2-trifluoro-1-(4-fluorophenyl)ethyl)-3-(trifluoromethyl)-[1,2,4]triazolo[4,3-b]pyridazine-6-sulfonamide] | 13.2
10 | CCN([C@H](c1ccc(F)cc1)C(F)(F)F)S(=O)(=O)c1nn(CC)c2cccnc12 [Example 173, (R)—N,1-diethyl-N-(2,2,2-trifluoro-1-(4-fluorophenyl)ethyl)-1H-pyrazolo[4,3-b]pyridine-3-sulfonamide] | 11.2
11 | CCN([C@H](c1ccc(F)cc1)C(F)(F)F)S(=O)(=O)c1n[nH]c2cccnc12 [Example 174, (R)—N-ethyl-N-(2,2,2-trifluoro-1-(4-fluorophenyl)ethyl)-1H-pyrazolo[4,3-b]pyridine-3-sulfonamide] | 18.6
12 | CCN([C@H](c1ccc(F)cc1)C(F)(F)F)S(=O)(=O)c1ccnc2[nH]ccc12 [Example 175, (R)—N-ethyl-N-(2,2,2-trifluoro-1-(4-fluorophenyl)ethyl)-1H-pyrrolo[2,3-b]pyridine-4-sulfonamide] | 0.302
13 | CCN([C@H](c1ccc(F)cc1)C(F)(F)F)S(=O)(=O)c1cnc2cccnn12 [Example 176, (R)—N-ethyl-N-(2,2,2-trifluoro-1-(4-fluorophenyl)ethyl)imidazo[1,2-b]pyridazine-3-sulfonamide] | 0.0912
14 | CCN([C@H](c1ccc(F)cc1)C(F)(F)F)S(=O)(=O)c1cnc2ncccn12 [Example 177, (R)—N-ethyl-N-(2,2,2-trifluoro-1-(4-fluorophenyl)ethyl)imidazo[1,2-a]pyrimidine-3-sulfonamide] | 0.0339
15 | CN([C@H](c1ccc(Cl)cc1)C(F)(F)F)S(=O)(=O)c1cnc2nsnc2c1 [Example 179, (R)—N-(1-(4-chlorophenyl)-2,2,2-trifluoroethyl)-N-methyl-[1,2,5]thiadiazolo[3,4-b]pyridine-6-sulfonamide] | 0.661
16 | CCN([C@H](c1ccc(F)cc1)C(F)(F)F)S(=O)(=O)c1ccc2nc(C)cn2n1 [Example 180, (R)—N-ethyl-2-methyl-N-(2,2,2-trifluoro-1-(4-fluorophenyl)ethyl)imidazo[1,2-b]pyridazine-6-sulfonamide] | 0.447
17 | CCN([C@H](c1ccc(F)cc1)C(F)(F)F)S(=O)(=O)c1cc2cc[nH]c2cn1 [Example 181, (R)—N-ethyl-N-(2,2,2-trifluoro-1-(4-fluorophenyl)ethyl)-1H-pyrrolo[2,3-c]pyridine-5-sulfonamide] | 0.537
18 | CCN([C@H](c1ccc(F)cc1)C(F)(F)F)S(=O)(=O)c1cccc2[nH]ncc12 [Example 182, (R)—N-ethyl-N-(2,2,2-trifluoro-1-(4-fluorophenyl)ethyl)-1H-indazole-4-sulfonamide] | 0.288

Row | SMILES | IC50 [µM]
19 | CN([C@H](c1ccc(F)cc1)C(F)(F)F)S(=O)(=O)c1cnc2ccnn2c1 [Example 183, (R)—N-methyl-N-(2,2,2-trifluoro-1-(4-fluorophenyl)ethyl)pyrazolo[1,5-a]pyrimidine-6-sulfonamide] | 0.24
20 | CCN([C@H](c1ccc(F)cc1)C(F)(F)F)S(=O)(=O)c1ccc2nc[nH]c2c1 [Example 185, (R)—N-ethyl-N-(2,2,2-trifluoro-1-(4-fluorophenyl)ethyl)-1H-benzo[d]imidazole-6-sulfonamide] | 0.155
21 | CN([C@H](c1ccc(Cl)cc1)C(F)(F)F)S(=O)(=O)c1cnc2ccccn12 [Example 187, (R)—N-(1-(4-chlorophenyl)-2,2,2-trifluoroethyl)-N-methylimidazo[1,2-a]pyridine-3-sulfonamide] | 0.0191
22 | CCN([C@H](c1ccc(F)cc1)C(F)(F)F)S(=O)(=O)c1ccc2[nH]ncc2n1 [Example 188, (R)—N-ethyl-N-(2,2,2-trifluoro-1-(4-fluorophenyl)ethyl)-1H-pyrazolo[4,3-b]pyridine-5-sulfonamide] | 0.309
23 | CCN([C@H](c1ccc(F)cc1)C(F)(F)F)S(=O)(=O)c1ccc2[nH]nnc2c1 [Example 189, (R)—N-ethyl-N-(2,2,2-trifluoro-1-(4-fluorophenyl)ethyl)-1H-benzo[d][1,2,3]triazole-5-sulfonamide] | 0.166
24 | CCN([C@H](c1ccc(F)cc1)C(F)(F)F)S(=O)(=O)c1nn(CC)c2ncccc12 [Example 190, (R)—N,1-diethyl-N-(2,2,2-trifluoro-1-(4-fluorophenyl)ethyl)-1H-pyrazolo[3,4-b]pyridine-3-sulfonamide] | 1
25 | CN([C@H](c1ccc(Cl)cc1)C(F)(F)F)S(=O)(=O)c1ccn2ccnc2c1 [Example 194, (R)—N-(1-(4-chlorophenyl)-2,2,2-trifluoroethyl)-N-methylimidazo[1,2-a]pyridine-7-sulfonamide] | 0.24
26 | COc1ccc([C@@H](N(C)S(=O)(=O)c2cn3ccncc3n2)C(F)(F)F)cc1 [Example 196, (R)—N-methyl-N-(2,2,2-trifluoro-1-(4-methoxyphenyl)ethyl)imidazo[1,2-a]pyrazine-2-sulfonamide] | 9.33
27 | Cc1ccc([C@@H](N(C)S(=O)(=O)c2cn3ccncc3n2)C(F)(F)F)cc1 [Example 197, (R)—N-methyl-N-(2,2,2-trifluoro-1-(p-tolyl)ethyl)imidazo[1,2-a]pyrazine-2-sulfonamide] | 6.17
28 | CCN([C@H](c1ccc(F)cc1)C(F)(F)F)S(=O)(=O)c1cn2ccnc2cn1 [Example 198, (R)—N-ethyl-N-(2,2,2-trifluoro-1-(4-fluorophenyl)ethyl)imidazo[1,2-a]pyrazine-6-sulfonamide] | 0.324
29 | CN([C@H](c1ccc(Cl)cc1)C(F)(F)F)S(=O)(=O)c1cn2ccnc2cn1 [Example 199, (R)—N-(1-(4-chlorophenyl)-2,2,2-trifluoroethyl)-N-methylimidazo[1,2-a]pyrazine-6-sulfonamide] | 1.15
30 | CN([C@H](c1ccc(Cl)cc1)C(F)(F)F)S(=O)(=O)c1cnc2ncsc2c1 [Example 200, (R)—N-(1-(4-chlorophenyl)-2,2,2-trifluoroethyl)-N-methylthiazolo[4,5-b]pyridine-6-sulfonamide] | 0.282
31 | CN([C@H](c1ccc(Cl)cc1)C(F)(F)F)S(=O)(=O)c1cnc2ccnn2c1 [Example 201, (R)—N-(1-(4-chlorophenyl)-2,2,2-trifluoroethyl)-N-methylpyrazolo[1,5-a]pyrimidine-6-sulfonamide] | 0.427
32 | CN([C@H](c1ccc(Cl)cc1)C(F)(F)F)S(=O)(=O)c1ccn2nncc2c1 [Example 202, (R)—N-(1-(4-chlorophenyl)-2,2,2-trifluoroethyl)-N-methyl-[1,2,3]triazolo[1,5-a]pyridine-5-sulfonamide] | 0.288
33 | COc1ccc([C@@H](N(C)S(=O)(=O)c2ccc3nccn3c2)C(F)(F)F)cc1 [Example 203, (R)—N-methyl-N-(2,2,2-trifluoro-1-(4-methoxyphenyl)ethyl)imidazo[1,2-a]pyridine-6-sulfonamide] | 0.794
34 | CN([C@H](c1ccc(Cl)cc1)C(F)(F)F)S(=O)(=O)c1cc2nncn2cn1 [Example 204, (R)—N-(1-(4-chlorophenyl)-2,2,2-trifluoroethyl)-N-methyl-[1,2,4]triazolo[4,3-c]pyrimidine-7-sulfonamide] | 0.759
35 | CN([C@H](c1ccc(Cl)cc1)C(F)(F)F)S(=O)(=O)c1ccc(O)nn1 [Example 208, (R)—N-(1-(4-chlorophenyl)-2,2,2-trifluoroethyl)-6-hydroxy-N-methylpyridazine-3-sulfonamide] | 1.05
